Results as given in patent publication US10093675B2, “6,8-disubstituted-9-(heterocyclyl)purines, compositions containing these derivatives and their use in cosmetic and medicinal applications” (USTAV EXPERIMENTALNI BOTANIKY AV CR, V.V.I., priority 2014, dated 2018).
Read-outs that look alike come from different tables or passages of the source.

Legend:
[1] = tested on: osteosarcoma cell line HOS; test: In vitro cytotoxic activity (Calcein AM), HOS; assay type: cell-based, human; conditions: 72 hours, read-out: Cell line tested/IC50 (μmol/L) HOS
Description: (§1) Because toxic compounds negatively influence metabolic processes of cells, many standard cytotoxicity assays are based on measurement of metabolisation rate of various artificial substrates. Resulting product is then quantified, for example, by means of spectrometry. The assays can be easily modified for use in 96-well plates. For evaluation of cytotoxicity of the […] of this invention, a microtiter assay based on quantification of metabolisation of Calcein AM was used. The assay is widely used in drug screening programs and in chemosensitivity testing. In live cells, Calcein AM is enzymatically hydrolysed and accumulation of resulting calcein is manifested by green fluorescence.
(§2) The following human cell lines were used for routine screening of the compounds: normal diploid fibroblasts BJ, T-lymphoblastic leukemia cell line CEM, promyelocytic leukemia cell line HL-60, erytroid leukemia cell line K-562, breast carcinoma cell line MCF-7, osteosarcoma cell line HOS and melanoma cell line G-361. The cells were maintained in Nunc/Corning 80 cm^2 plastic tissue culture flasks and cultured in cell culture medium (DMEM with 5 g/l glucose, 2 mM glutamine, 100 U/ml penicillin, 100 mmg/ml streptomycin, 10% fetal calf serum and sodium bicarbonate). The cell suspensions were prepared and diluted according to the particular cell type and the expected target cell density (2.500-30.000 cells per well based on cell growth characteristics) and pipetted (80 μl) into 96-well plates. Inoculates were allowed a pre-incubation period of 24 hours at 37° C. and 5% CO2 for stabilization. Tested compound was added in total volume of 20 μl of water at time zero. Usually, test compound was evaluated at six 3-fold dilutions. In routine testing, the highest concentration tested was 100 μM, but it could have been adjusted because of limited solubility of a compound. All drug concentrations were tested in triplicates.
(§3) Incubations of cells with the test compounds lasted for 72 hours at 37° C., in 5% CO2 atmosphere and 100% humidity. At the end of incubation period Calcein AM in PBS was added into final concentration of 1 μg/ml. After another 1 hour of incubation fluorescence (FD) was measured with the Labsystem FIA Reader Fluoroscan Ascent (UK). Growth inhibition (GI) was estimated using the following equitation: GI=(mean FDdrug exposed wells−mean FDblank)/(mean FDcontrol wells−mean FDblank)×100%. The GI50 value, the drug concentration causing 50% reduction of Calcein AM conversion, was calculated from the obtained dose response curves.

melanoma cell line G-361 = test: In vitro cytotoxic activity (Calcein AM), G-361; assay type: cell-based, human; conditions: read-out: Cell line tested/IC50 (μmol/L) G-361
Description: as §1, §2, §3

[2] = tested on: Human diploid fibroblast BJ; test: In vitro cytotoxic activity (MTT); assay type: cell-based; conditions: 72 hours incubation; concentration causing 20% decrease in mitochondrial dehydrogenase activity
Protocol: MTT (metabolic tetrazolium toxicity) assay is a standard colorimetric assay for evaluation of cytotoxicity. Mitochondrial dehydrogenase activity converts yellow MTT into violet formazan which is measured by means of spectrometry.
Human diploid fibroblast BJ (passage 18-22) were seeded into 96-well plate (5.000 cells per well). After 6 hours cultivation medium (DMEM with 5 g/l glucose, 2 mM glutamine, 100 U/ml penicillin, 100 mmg/ml streptomycin, 10% fetal calf serum and sodium bicarbonate) was replaced with the cultivation medium containing test compounds in concentration range of 0-200 µM. Highest concentration was adjusted if the solubility of the compound was limiting. Every concentration was tested in pentaplicate. MTT was added to the cells after 72 hours incubation (final concentration 0.5 mg/ml) and incubation continued for another 3 hours. MTT was solubilised by DMSO and absorbance at 570 nm was measured. Growth inhibition (GI) was estimated using the following equitation: GI=(mean A drug exposed wells−mean Ablank/mean Acontrol wells−mean Ablank)×100%. The GI20 value, the drug concentration causing 20% decrease in mitochondrial dehydrogenase activity, was calculated from the obtained dose response curves.

[3] = tested on: erytroid leukemia cell line K-562; test: In vitro cytotoxic activity (Calcein AM), K-562; assay type: cell-based, human; conditions: read-out: Cell line tested/IC50 (μmol/L) K-562
Description: as §1, §2, §3

[4] = tested on: breast carcinoma cell line MCF-7; test: In vitro cytotoxic activity (Calcein AM), MCF-7; assay type: cell-based, human; conditions: read-out: Cell line tested/IC50 (μmol/L) MCF7
Description: as §1, §2, §3

[5] = tested on: T-lymphoblastic leukemia cell line CEM; test: In vitro cytotoxic activity (Calcein AM), CEM; assay type: cell-based, human; conditions: 72 hours, read-out: Cell line tested/IC50 (μmol/L) CEM
Description: as §1, §2, §3

[6] = tested on: cytokinin-dependent tobacco callus Nicotiana tabacum L. cv. Wisconsin 38; test: Plant cell division: growth of cytokinin-dependent tobacco callus; assay type: cell-based; conditions: for Activity (%); (s.d.): relative activity at concentration with highest activity, 10^−6 M kinetin set at 100%; for Concentration with highest activity (mol/l): tobacco callus fresh weight increase after four weeks, tested 10^−8 M to 10^−4 M
Protocol: Cytokinin-dependent tobacco callus Nicotiana tabacum L. cv. Wisconsin 38 was maintained at 25° C. in darkness on modified MS medium, containing 4 μmol/l nicotinic acid, 2.4 μmol/l pyridoxine hydrochloride, 1.2 μmol/l thiamine, 26.6 μmol/l glycine, 1.37 μmol/l glutamine, 1.8 μmol/l myo-inositol, 30 g/l of sucrose, 8 g/l of agar, 5.37 μmol/l NAA and 0.5 μmol/l BAP. Subcultivation was carried out every three weeks. Fourteen days before the bioassay, the callus tissue was transferred to the media without BAP. Biological activity was determined from the increase in fresh callus weight after four weeks of cultivation. Five replicates were prepared for each cytokinin concentration and the entire test was repeated twice. From the obtained data, the concentration with highest activity was selected for each compound tested. Relative activity at this concentration was calculated (see Table 17 below). The activity obtained for 10^−6 M kinetin (Kin) was set as 100%.
The cytokinins to be tested were dissolved in dimethylsulfoxide (DMSO) and the solution brought up to 10^−3M with distilled water.

[7] = tested on: normal diploid fibroblasts BJ; test: In vitro cytotoxic activity (Calcein AM), BJ; assay type: cell-based, human; conditions: 72 hours, read-out: Cell line tested/IC50 (μmol/L) BJ
Description: as §1, §2, §3

[8] = tested on: Salmonella typhimurium histidien auxotrophs TA98 and TA100; test: Ames test; assay type: cell-based; conditions: 2.5 to 5000 μg/plate; presence and absence of Aroclor-induced rat liver S9
Protocol: A number of tests related to the safety of have been carried out using conventionally accepted protocols and procedures. The results of these studies are summarized herein. Tests were carried out using DMSO as solvent and dose levels of compound 21, 24, 26, 27, 39, 41, 45, 48, 50, 52, 53, 54, 55, 56, 63, 64, 66, 67, 68, 69, 70, 71, 72, 74, 76, 124, 125, 126, 127, 128, 129, 130, 145, 146, 147, 149, 150, 151, 208, 216, 218 a 243 at 2.5, 5.0, 15, 50, 500, 1500, and 5000 μg/plate based upon standard protocol and procedures (Ames et al., Mutation Research, 31, 347-364 (1975); Maron et al., Mutation Research, 113, 173-215 (1983)).

SMILES	IC50 ([1]; Homo sapiens) [µmol/L]	IC50 (melanoma cell line G-361; Homo sapiens, G-361, 72 hours) [µmol/L]	GI20 [2] [µM]	IC50 ([3]; Homo sapiens, K562, 72 hours) [µmol/L]	IC50 ([4]; Homo sapiens, MCF7, 72 hours) [µmol/L]	IC50 ([5]; Homo sapiens) [µmol/L]	Activity (%); (s.d.) [6]	IC50 ([7]; Homo sapiens, Fibroblast) [µmol/L]	mutagenic response [8]	IC50 [1] [µmol/L]	IC50 (melanoma cell line G-361; 72 hours) [µmol/L]	IC50 ([3]; 72 hours) [µmol/L]	IC50 ([4]; 72 hours) [µmol/L]	IC50 [5] [µmol/L]	Concentration with highest activity (mol/l) [6]	IC50 [7] [µmol/L]
CC(C)=CCNc1ncnc2c1nc(Cl)n2C1CCCCO1 (centres unmarked) [Compound 3, 8-Chloro-6-(3-methylbut-2-en-1-ylamino)-9-(tetrahydropyran-2-yl)-9H-purine]	> 50	> 50	>50	> 50	> 50	> 50	118 (±6) %	> 50								
COc1nc2c(NCC=C(C)C)ncnc2n1C1CCCCO1 (centres unmarked) [Compound 127, 8-Methoxy-6-(3-methylbut-2-en-1-ylamino)-9-(tetrahydropyran-2-yl)-9H-purine]	> 50	> 50	>100	> 50	> 50	> 50	114 (±6) %	> 50	no positive mutagenic responses							
CSc1nc2c(NCc3ccco3)ncnc2n1C1CCCO1 (centres unmarked) [Compound 216]			>100				103 (±4) %		no positive mutagenic responses	> 50	> 50	> 50	> 50	> 50	10^−6-10^−4 mol/l	> 50
CC(C)=CCNc1ncnc2c1nc(Br)n2C1CCCCO1 (centres unmarked) [Compound 23, 8-Bromo-6-(3-methylbut-2-en-1-ylamino)-9-(tetrahydropyran-2-yl)-9H-purine]	> 50	> 50	>100	> 50	> 50	> 50	125 (±7) %	> 50								
COc1cccc(CNc2ncnc3c2nc(OC)n3C2CCCO2)c1 (centres unmarked) [Compound 209]			>100				112 (±4) %			> 50	> 50	> 50	> 50	> 50	10^−6-10^−4 mol/l	> 50
CC(C)=CCNc1ncnc2c1nc(Cl)n2C1CCCO1 (centres unmarked) [Compound 65]			>100				127 (±9) %			> 50	> 50	> 50	> 50	> 50	10^−6-10^−4 mol/l	> 50
COc1nc2c(NCc3cccc(O)c3)ncnc2n1C1CCCCO1 (centres unmarked) [Compound 129]			>100				111 (±4) %		no positive mutagenic responses	> 50	> 50	> 50	> 50	> 50	10^−6-10^−5 mol/l	> 50
COc1nc2c(NCC=C(C)C)ncnc2n1C1CCCO1 (centres unmarked) [Compound 207]			>100				114 (±3) %			> 50	> 50	> 50	> 50	> 50	10^−6-10^−4 mol/l	> 50
CSc1nc2c(NCc3cccc(F)c3)ncnc2n1C1CCCCO1 (centres unmarked) [Compound 151]			>100				109 (±5) %		no positive mutagenic responses	> 50	> 50	> 50	> 50	> 50	10^−6-10^−4 mol/l	> 50
COc1nc2c(NCc3cccc(F)c3)ncnc2n1C1CCCCO1 (centres unmarked) [Compound 130]			>100				108 (±3) %		no positive mutagenic responses	> 50	> 50	> 50	> 50	> 50	10^−6-10^−4 mol/l	> 50
CSc1nc2c(NCc3cccc(O)c3)ncnc2n1C1CCCCO1 (centres unmarked) [Compound 149]			>100				107 (±1) %		no positive mutagenic responses	> 50	> 50	> 50	> 50	> 50	10^−6-10^−4 mol/l	> 50
COc1nc2c(NCC=C(C)CO)ncnc2n1C1CCCO1 (centres unmarked) [Compound 208]			>100				119 (±7) %		no positive mutagenic responses	> 50	> 50	> 50	> 50	> 50	10^−6-10^−4 mol/l	> 50
CSc1nc2c(NCC=C(C)C)ncnc2n1C1CCCO1 (centres unmarked) [Compound 218]			>100				113 (±5) %		no positive mutagenic responses	> 50	> 50	> 50	> 50	> 50	10^−6-10^−4 mol/l	> 50
